# Molecular target: T1, Dimer of Gag-Pol polyprotein [501-599] (Human immunodeficiency virus 1, UniProt P03367)
# T1 construct: 501-599
# Assay: Protease Inhibition Assay
# Settings: pH 5.5; 37 °C
structure (smiles),measurement,value
Nc1cccc(CN2C(=O)N(Cc3cccc(N)c3)[C@H](Cc3ccccc3)[C@H](O)[C@@H](O)[C@H]2Cc2ccccc2)c1,Ki,0.34 nM
O=C1N(CC2CCCC2)[C@H](Cc2ccccc2)[C@H](O)[C@@H](O)[C@@H](Cc2ccccc2)N1CC1CCCC1,Ki,4 nM
